According to US8586588B2, “Aryl pyridazinone derivatives and their use as H3 receptor ligands” (Cephalon, Inc., priority 2006, dated 2013):
Like-named read-outs stand apart in the source and are kept apart here.

Tests used:
human H3 receptor = target: T1, human H3 receptor (Homo sapiens, UniProt Q9Y5N1); assay: Human H3 radioligand binding ([3H]-N-alpha-methylhistamine, CHO cell membranes, SPA); conditions: binding constant as letter class
T1 construct: expressed in transfected cells
Method: (§1) Cell pellets were resuspended in 5 mM Tris-HCl, pH 7.5 with […] and a cocktail of protease inhibitors (Complete Protease Inhibition Tablets, Roche Diagnostics). Cells were disrupted using a polytron cell homogenizer and the suspension was centrifuged at 1000×g for 10 minutes at 4° C. The pellet was discarded and the supernatant centrifuged at 40,000×g for 30 min at 4° C. This membrane pellet was washed in membrane buffer containing 50 mM Tris-HCl, pH 7.5 with 0.6 mM EDTA, 5 mM MgCl2 and protease inhibitors, recentrifuged as above and the final pellet resuspended in membrane buffer plus 250 mM sucrose and frozen at −80° C.
(§2) Membranes were resuspended in 50 mM Tris HCl (pH 7.4), 5 mM MgCl2, 0.1% BSA. The membrane suspensions (10 μg protein per well) were incubated in a 96 well microtiter plate with [^3H]-N-alpha-methylhistamine (approximately 1 nM final concentration), test compounds at various concentrations (0.01 nM-30 μM) and scintillation proximity beads (Perkin Elmer, FlashBlueGPCR Scintillating Beads) in a final volume of 80 μl for 4 hours at room temperature, protected from light. Non-specific binding was determined in the presence of 10 μM clobenpropit. Radioligand bound to receptor, and therefore in proximity to the scintillation beads, was measured using a MicroBeta scintillation counter.

[1] = target: T2, rat histamine H3 receptor (Rattus norvegicus, UniProt Q9QYN8); assay: Rat H3 radioligand binding ([3H]-N-alpha-methylhistamine, CHO-A3 cell membranes, SPA)
T2 construct: encoding the entire 445-amino-acid rat histamine H3 receptor; expressed in transfected cells
Method: as §1, with “This was engineered into the pIRES-neo3 mammalian expression vector, which was stably transfected into the CHO-A3 cell line (Euroscreen, Belgium), followed by clonal selection by limiting dilution. Cells were harvested and cell pellets were frozen (−80° C.). Cell pellets” for “Cell pellets”
as §2

[2] = Table A, binding constant as letter class, read-out: Rat H3 Ki
[3] = Table B, binding constant as letter class, read-out: rat H3 Ki

T2 sequence (Q9QYN8 whole entry): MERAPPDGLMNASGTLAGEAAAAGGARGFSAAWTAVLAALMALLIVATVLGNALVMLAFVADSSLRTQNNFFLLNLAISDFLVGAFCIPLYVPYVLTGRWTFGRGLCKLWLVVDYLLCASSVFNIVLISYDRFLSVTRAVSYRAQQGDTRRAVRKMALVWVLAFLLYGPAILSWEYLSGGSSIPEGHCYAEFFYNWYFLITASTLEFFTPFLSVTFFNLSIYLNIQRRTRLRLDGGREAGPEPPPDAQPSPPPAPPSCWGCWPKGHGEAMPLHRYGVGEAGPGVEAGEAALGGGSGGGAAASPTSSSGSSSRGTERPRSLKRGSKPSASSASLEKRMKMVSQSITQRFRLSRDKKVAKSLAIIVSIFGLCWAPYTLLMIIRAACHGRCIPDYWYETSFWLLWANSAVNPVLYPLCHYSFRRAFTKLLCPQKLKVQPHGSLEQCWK
T1 sequence (Q9Y5N1 whole entry): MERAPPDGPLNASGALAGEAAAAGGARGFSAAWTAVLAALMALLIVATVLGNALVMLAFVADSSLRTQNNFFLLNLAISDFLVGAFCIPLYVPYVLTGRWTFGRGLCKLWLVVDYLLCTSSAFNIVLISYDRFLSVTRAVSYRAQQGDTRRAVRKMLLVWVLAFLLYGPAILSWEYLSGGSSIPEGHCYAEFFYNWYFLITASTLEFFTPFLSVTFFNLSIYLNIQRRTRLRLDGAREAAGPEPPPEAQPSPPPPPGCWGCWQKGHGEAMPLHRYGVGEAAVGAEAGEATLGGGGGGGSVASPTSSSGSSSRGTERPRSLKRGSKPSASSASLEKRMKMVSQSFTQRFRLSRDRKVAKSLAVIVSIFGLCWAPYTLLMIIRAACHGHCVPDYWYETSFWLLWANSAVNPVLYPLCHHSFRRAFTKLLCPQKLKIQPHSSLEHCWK

Structure (SMILES) | Ki (human H3 receptor; Table A) [nM] | Ki [1, 2] [nM] | Ki (human H3 receptor; Table B) [nM] | Ki [1, 3] [nM] | Ki ([1]; Table B, cell prints a number instead of a letter, read-out: rat H3 Ki) [nM]
Cn1nc(-c2ccc(OCCCN3CCCC3)cc2)c2ccccc2c1=O [Example 52, 2-Methyl-4-[4-(3-pyrrolidin-1-yl-propoxy)-phenyl]-2H-phthalazin-1-one] | 0.1 to 100 | 0.1 to 100 |  |  | 
Cn1nc(-c2ccc(OCCCN3CCCCCC3)cc2)c2ccccc2c1=O [Example 53, 4-[4-(3-Azepan-1-yl-propoxy)-phenyl]-2-methyl-2H-phthalazin-1-one] | 0.1 to 100 | 0.1 to 100 |  |  | 
C[C@@H]1CCCN1CCCOc1ccc(-c2nn(Cc3ccc(Cl)cc3)c(=O)c3ccccc23)cc1 [Example 54, 2-(4-Chloro-benzyl)-4-{4-[3-((R)-2-methyl-pyrrolidin-1-yl)-propoxy]-phenyl}-2H-phthalazin-1-one] | 0.1 to 100 | 0.1 to 100 |  |  | 
O=c1c2ccccc2c(-c2ccc(OCCCN3CCCCC3)cc2)nn1Cc1ccc(Cl)cc1 [Example 55, 2-(4-Chloro-benzyl)-4-[4-(3-piperidin-1-yl-propoxy)-phenyl]-2H-phthalazin-1-one] | 0.1 to 100 | 0.1 to 100 |  |  | 
C[C@@H]1CCCN1CCCOc1ccc(-c2nn(C)c(=O)c3c2CCC3)cc1 [Example 56, 2-Methyl-4-{4-[3-((R)-2-methyl-pyrrolidin-1-yl)-propoxy]-phenyl}-2,5,6,7-tetrahydro-cyclopenta[d]pyridazin-1-one] | 0.1 to 100 | 0.1 to 100 |  |  | 
Cn1nc(-c2ccc(OCCCN3CCCCC3)cc2)c2c(c1=O)CCC2 [Example 57, 2-Methyl-4-[4-(3-piperidin-1-yl-propoxy)-phenyl]-2,5,6,7-tetrahydro-cyclopenta[d]pyridazin-1-one] | 0.1 to 100 | 0.1 to 100 |  |  | 
C[C@@H]1CCCN1CCCOc1ccc(C2=NN(C)C(=O)C3CCCC23)cc1 (stereo partly drawn) [Example 58, 2-Methyl-4-{4-[3-((R)-2-methyl-pyrrolidin-1-yl)-propoxy]-phenyl}-2,4a,5,6,7,7a-hexahydro-cyclopenta[d]pyridazin-1-one] | 0.1 to 100 | 0.1 to 100 |  |  | 
CN1N=C(c2ccc(OCCCN3CCCCC3)cc2)C2CCCC2C1=O (stereo not shown) [Example 59, 2-Methyl-4-[4-(3-piperidin-1-yl-propoxy)-phenyl]-2,4a,5,6,7,7a-hexahydro-cyclopenta[d]pyridazin-1-one] | 0.1 to 100 | 0.1 to 100 |  |  | 
C[C@@H]1CCCN1CCCOc1ccc(-c2nn(C)c(=O)c3c2CCCC3)cc1 [Example 60, 2-Methyl-4-{4-[3-((R)-2-methyl-pyrrolidin-1-yl)-propoxy]-phenyl}-5,6,7,8-tetrahydro-2H-phthalazin-1-one] | 0.1 to 100 | 0.1 to 100 |  |  | 
Cn1nc(-c2ccc(OCCCN3CCCCC3)cc2)c2c(c1=O)CCCC2 [Example 61] | 0.1 to 100 | 0.1 to 100 |  |  | 
Cn1nc(-c2ccc(OCC3CCNCC3)cc2)c2ccccc2c1=O [Example 63, 2-Methyl-4-[4-(piperidin-4-ylmethoxy)-phenyl]-2H-phthalazin-1-one] | > 1000 | > 1000 |  |  | 
Cn1nc(-c2ccc(OCC3CCN(C4CCC4)CC3)cc2)c2ccccc2c1=O [Example 64, 4-[4-(1-Cyclobutyl-piperidin-4-ylmethoxy)-phenyl]-2-methyl-2H-phthalazin-1-one] | 0.1 to 100 | 101 to 500 |  |  | 
Cn1nc(-c2ccc(OCC3CCNCC3)cc2)ccc1=O [Example 66, 2-Methyl-6-[4-(piperidin-4-ylmethoxy)-phenyl]-2H-pyridazin-3-one] | > 1000 | > 1000 |  |  | 
Cn1nc(-c2ccc(OCC3CCN(C4CCC4)CC3)cc2)ccc1=O [Example 67, 6-[4-(1-Cyclobutyl-piperidin-4-ylmethoxy)-phenyl]-2-methyl-2H-pyridazin-3-one] | 101 to 500 | > 1000 |  |  | 
CC(C)N1CCC(COc2ccc(-c3ccc(=O)n(C)n3)cc2)CC1 [Example 68, 6-[4-(1-Isopropyl-piperidin-4-ylmethoxy)-phenyl]-2-methyl-2H-pyridazin-3-one] | 0.1 to 100 | 101 to 500 |  |  | 
Cn1nc(-c2ccc(OCC3CCN(CC4CC4)CC3)cc2)ccc1=O [Example 69, 6-[4-(1-Cyclopropylmethyl-piperidin-4-ylmethoxy)-phenyl]-2-methyl-2H-pyridazin-3-one] | 101 to 500 | > 1000 |  |  | 
Cn1nc(-c2ccc(OCC3CCN(C4CCCC4)CC3)cc2)ccc1=O [Example 70, 6-[4-(1-Cyclopentyl-piperidin-4-ylmethoxy)-phenyl]-2-methyl-2H-pyridazin-3-one] | 101 to 500 | 101 to 500 |  |  | 

Structure (SMILES) | Ki (human H3 receptor; Table A) [nM] | Ki [1, 2] [nM] | Ki (human H3 receptor; Table B) [nM] | Ki [1, 3] [nM] | Ki ([1]; Table B, cell prints a number instead of a letter, read-out: rat H3 Ki) [nM]
CN1CCC(COc2ccc(-c3ccc(=O)n(C)n3)cc2)CC1 [Example 71, 2-Methyl-6-[4-(1-methyl-piperidin-4-ylmethoxy)-phenyl]-2H-pyridazin-3-one] | 101 to 500 | 501 to 1000 |  |  | 
CC(C)N1CCC(Oc2ccc(-c3ccc(=O)n(C)n3)cc2)CC1 [Example 72] | 0.1 to 100 | 0.1 to 100 |  |  | 
Cn1nc(-c2ccc(OC3CCNCC3)cc2)ccc1=O [Example 73] | 501 to 1000 | > 1000 |  |  | 
Cn1nc(-c2ccc(OC3CCN(C4CCC4)CC3)cc2)ccc1=O [Example 74] | 0.1 to 100 | 0.1 to 100 |  |  | 
C[C@@H]1CCCN1CCCOc1ccc2c(c1)CCc1cc(=O)n(C)nc1-2 [Example 75, 2-Methyl-8-[3-((R)-2-methyl-pyrrolidin-1-yl)-propoxy]-5,6-dihydro-2H-benzo[h]cinnolin-3-one] | 0.1 to 100 | 0.1 to 100 |  |  | 
C[C@@H]1CCCN1CCCOc1ccc2c(c1)CCc1cc(=O)n(-c3ccccc3)nc1-2 [Example 76, 8-[3-((R)-2-Methyl-pyrrolidin-1-yl)-propoxy]-2-phenyl-5,6-dihydro-2H-benzo[h]cinnolin-3-one] | 0.1 to 100 | 0.1 to 100 |  |  | 
O=c1cc2c(nn1Cc1ccccc1)-c1ccc(OCCCN3CCCCC3)cc1CC2 [Example 77, 2-Benzyl-8-(3-piperidin-1-yl-propoxy)-5,6-dihydro-2H-benzo[h]cinnolin-3-one] | 0.1 to 100 | 101 to 500 |  |  | 
CC(C)n1nc2c(cc1=O)CCc1cc(OCCCN3CCCCC3)ccc1-2 [Example 78, 2-Isopropyl-8-(3-piperidin-1-yl-propoxy)-5,6-dihydro-2H-benzo[h]cinnolin-3-one] | 0.1 to 100 | 0.1 to 100 |  |  | 
C[C@@H]1CCCN1CCCOc1ccc(-c2ccc(=O)n(-c3ccccc3)n2)cc1F [Example 81, 6-{3-Fluoro-4-[3-((R)-2-methyl-pyrrolidin-1-yl)-propoxy]-phenyl}-2-phenyl-2H-pyridazin-3-one] | 0.1 to 100 | 0.1 to 100 | 0.1 to 100 | 0.1 to 100 | 
C[C@@H](COc1ccc(-c2ccc(=O)n(C)n2)cc1)CN1CCC[C@H]1C [Example 82, 2-Methyl-6-{4-[(R)-2-methyl-3-((R)-2-methyl-pyrrolidin-1-yl)-propoxy]-phenyl}-2H-pyridazin-3-one] |  |  | 0.1 to 100 | 0.1 to 100 | 
C[C@@H]1CCCN1CCCOc1ccc(-c2ccc(=O)n(C)n2)cc1Cl [Example 85, 6-{3-Chloro-4-[3-((R)-2-methyl-pyrrolidin-1-yl)-propoxy]-phenyl}-2-methyl-2H-pyridazin-3-one] |  |  | 0.1 to 100 | 0.1 to 100 | 
Cc1nn(C)c(=O)cc1-c1ccc(OCCCN2CCC[C@H]2C)cc1 [Example 86, 2,6-Dimethyl-5-{4-[3-((R)-2-methyl-pyrrolidin-1-yl)-propoxy]-phenyl}-2H-pyridazin-3-one] |  |  | 0.1 to 100 | 0.1 to 100 | 
Cc1nn(C)c(=O)cc1-c1ccc(OCCCN2CCCCC2)cc1 [Example 87, 2,6-Dimethyl-5-[4-(3-piperidin-1-yl-propoxy)-phenyl]-2H-pyridazin-3-one] |  |  | 0.1 to 100 | 0.1 to 100 | 
Cc1n[nH]c(=O)cc1-c1ccc(OCCCN2CCC[C@H]2C)cc1 [Example 88, 6-Methyl-5-{4-[3-((R)-2-methyl-pyrrolidin-1-yl)-propoxy]-phenyl}-2H-pyridazin-3-one] |  |  | 0.1 to 100 | 0.1 to 100 | 
Cc1n[nH]c(=O)cc1-c1ccc(OCCCN2CCCCC2)cc1 [Example 89, 6-Methyl-5-[4-(3-piperidin-1-yl-propoxy)-phenyl]-2H-pyridazin-3-one] |  |  | 0.1 to 100 | 0.1 to 100 | 
Cc1n[nH]c(=O)cc1-c1ccc(OCCCN2CCCCCC2)cc1 [Example 90, 5-[4-(3-Azepan-1-yl-propoxy)-phenyl]-6-methyl-2H-pyridazin-3-one] |  |  | 0.1 to 100 |  | 5
C[C@@H]1CCCN1CCCOc1ccc(-c2cnn(C)c(=O)c2)cc1 [Example 91, 2-Methyl-5-{4-[3-((R)-2-methyl-pyrrolidin-1-yl)-propoxy]-phenyl}-2H-pyridazin-3-one] |  |  | 0.1 to 100 | 0.1 to 100 | 
